The supplement of paper PMC11451515

Tested on: NOMO1
Experiment: cell viability relative to DMSO control; higher = less cytotoxic
Settings: 48 h
Summary of the method: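 Viability values are per-plate percentages of DMSO wells, with background from cell-free wells. Library compounds in DMSO were pin-dosed, in an 11-point threefold series from 47 μM to 0.79 nM, onto NOMO1 or SEM (500 cells/well) or P12-Ichikawa (1000 cells/well) leukemia cells in 1536-well plates (5 μl). Those cells had been adapted for at least four passages in each medium, and CellTiter-Glo One luminescence was read after 48 h at 37°C.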

[1] = HPLM + 10% dialyzed FBS, 0.000781 µM
[2] = HPLM + 10% dialyzed FBS, 0.00234 µM
[3] = HPLM + 10% dialyzed FBS, 0.00702 µM
[4] = HPLM + 10% dialyzed FBS, 0.0211 µM
[5] = HPLM + 10% dialyzed FBS, 0.0632 µM
[6] = HPLM + 10% dialyzed FBS, 0.19 µM
[7] = HPLM + 10% dialyzed FBS, 0.569 µM
[8] = HPLM + 10% dialyzed FBS, 1.71 µM
[9] = HPLM + 10% dialyzed FBS, 5.12 µM
[10] = HPLM + 10% dialyzed FBS, 15.4 µM
[11] = HPLM + 10% dialyzed FBS, 46.1 µM
[12] = RPMI 5 mM glucose + 10% FBS, 0.000781 µM
[13] = RPMI 5 mM glucose + 10% FBS, 0.00234 µM
[14] = RPMI 5 mM glucose + 10% FBS, 0.00702 µM
[15] = RPMI 5 mM glucose + 10% FBS, 0.0211 µM
[16] = RPMI 5 mM glucose + 10% FBS, 0.0632 µM
[17] = RPMI 5 mM glucose + 10% FBS, 0.19 µM
[18] = RPMI 5 mM glucose + 10% FBS, 0.569 µM
[19] = RPMI 5 mM glucose + 10% FBS, 1.71 µM
[20] = RPMI 5 mM glucose + 10% FBS, 5.12 µM
[21] = RPMI 5 mM glucose + 10% FBS, 15.4 µM
[22] = RPMI 5 mM glucose + 10% FBS, 46.1 µM
[23] = RPMI 5 mM glucose + 10% dialyzed FBS, 0.000781 µM
[24] = RPMI 5 mM glucose + 10% dialyzed FBS, 0.00234 µM
[25] = RPMI 5 mM glucose + 10% dialyzed FBS, 0.00702 µM
[26] = RPMI 5 mM glucose + 10% dialyzed FBS, 0.0211 µM
[27] = RPMI 5 mM glucose + 10% dialyzed FBS, 0.0632 µM
[28] = RPMI 5 mM glucose + 10% dialyzed FBS, 0.19 µM
[29] = RPMI 5 mM glucose + 10% dialyzed FBS, 0.569 µM
[30] = RPMI 5 mM glucose + 10% dialyzed FBS, 1.71 µM
[31] = RPMI 5 mM glucose + 10% dialyzed FBS, 5.12 µM
[32] = RPMI 5 mM glucose + 10% dialyzed FBS, 15.4 µM
[33] = RPMI 5 mM glucose + 10% dialyzed FBS, 46.1 µM

Row | SMILES | cell viability [1] | cell viability [2] | cell viability [3] | cell viability [4] | cell viability [5] | cell viability [6] | cell viability [7] | cell viability [8] | cell viability [9] | cell viability [10] | cell viability [11] | cell viability [12] | cell viability [13] | cell viability [14] | cell viability [15] | cell viability [16] | cell viability [17] | cell viability [18] | cell viability [19] | cell viability [20] | cell viability [21] | cell viability [22] | cell viability [23] | cell viability [24] | cell viability [25] | cell viability [26] | cell viability [27] | cell viability [28] | cell viability [29] | cell viability [30] | cell viability [31] | cell viability [32] | cell viability [33]
1 | COc1cc([C@H]2Oc3cc([C@H]4Oc5cc(O)cc(O)c5C(=O)[C@@H]4O)ccc3O[C@@H]2CO)ccc1O | 103% | 122% | 119% | 126% | 120% | 123% | 125% | 95.9% | 106% | 119% | 82% | 105% | 124% | 118% | 110% | 114% | 116% | 111% | 100% | 111% | 115% | 103% | 104% | 121% | 115% | 119% | 118% | 100% | 102% | 109% | 106% | 110% | 101%
2 | CN1\C(=C(\O)C2=C(C=CC=C2)[S+]1([O-])=O)C(=O)NC3=CC=CC=N3 | 107% | 138% | 110% | 122% | 122% | 129% | 105% | 107% | 102% | 58.2% | 29.1% | 109% | 101% | 108% | 116% | 117% | 123% | 113% | 109% | 123% | 43.9% | 21.2% | 87.5% | 103% | 100% | 100% | 113% | 99.2% | 116% | 94.6% | 99.6% | 108% | 35.3%
3 | c1ccc(CNc2nc(N3CCOc4ccccc43)nc3c2CCCC3)cc1 | 78.1% | 97.2% | 110% | 103% | 110% | 93.4% | 103% | 111% | 107% | 100% | 97.8% | 100% | 97.7% | 109% | 94.9% | 99.9% | 106% | 106% | 107% | 106% | 110% | 90.2% | 102% | 103% | 112% | 105% | 112% | 111% | 114% | 109% | 109% | 97.6% | 98.8%
4 | CN1CCCC(CC1)N2\N=C(CC3=CC=C(Cl)C=C3)/C4=C(C=CC=C4)C2=O (centres undefined) | 101% | 108% | 109% | 122% | 127% | 125% | 112% | 120% | 109% | 65.7% | 48.1% | 102% | 107% | 120% | 109% | 109% | 112% | 108% | 114% | 107% | 94.2% | 55.5% | 117% | 118% | 107% | 110% | 125% | 128% | 121% | 109% | 112% | 106% | 57.1%
5 | CN(C)CCN(C)C(=O)c1ccc(NC(=O)Nc2ccc(-c3nc(N4CCOCC4)c4ccn(CC(F)(F)F)c4n3)cc2)cc1 |  |  |  |  |  |  |  |  |  |  |  | 101% | 115% | 117% | 130% | 109% | 91.2% | 74.5% | 70% | 75.7% | 78.7% | 81.9% | 116% | 113% | 113% | 121% | 92.6% | 78.5% | 81.7% | 67.4% | 72.5% | 68.1% | 69.5%
6 | Nc1nc(N)c2nc(-c3cccc(O)c3)c(-c3cccc(O)c3)nc2n1 | 124% | 135% | 110% | 128% | 116% | 126% | 123% | 108% | 79.6% | 47.8% | 17% | 106% | 115% | 102% | 116% | 112% | 117% | 105% | 111% | 91.6% | 90.6% | 4.68% | 119% | 106% | 107% | 112% | 114% | 110% | 105% | 108% | 96.7% | 78.5% | 42.2%
7 | CC/1=C(/C(CC(=O)N1)C2=CC=C(C=C2)C(F)(F)F)C(=O)NC3=C(F)C=C4[NH]N=CC4=C3 (centres undefined) | 94.2% | 94.5% | 103% | 108% | 104% | 100% | 105% | 98.6% | 96.1% | 33.6% | 11.5% | 92% | 92.7% | 85.7% | 81.2% | 89.6% | 86% | 86.9% | 82.4% | 84.2% | 66.7% | 23.9% | 91.7% | 89.1% | 104% | 96.1% | 95% | 84.7% | 97.5% | 95.3% | 92.1% | 58% | 28%
8 | ClC1=CC\2=C(NC(=O)\C(=C2N[C@@H]3CN4CCC3CC4)C5=NC6=C([NH]5)C=CC=C6)C=C1 | 121% | 123% | 121% | 123% | 129% | 49.3% | 36.5% | 35.6% | 32.3% | 28.4% | 17.3% | 113% | 120% | 123% | 110% | 103% | 46.4% | 23.4% | 17.5% | 18% | 12.4% | 13.4% | 101% | 105% | 113% | 108% | 117% | 44% | 23.7% | 20.4% | 25.2% | 18.6% | 18.2%
9 | CN1CCC[C@@H]1CCO[C@](C)(c1ccccc1)c1ccc(Cl)cc1 | 96% | 112% | 95.7% | 102% | 112% | 109% | 119% | 107% | 110% | 112% | 95.2% | 100% | 105% | 101% | 110% | 107% | 105% | 100% | 109% | 114% | 115% | 103% | 93.3% | 112% | 105% | 97.2% | 117% | 108% | 104% | 102% | 104% | 112% | 87.8%
10 | CN(C)CCOc1ccc(-c2nc(-c3ccncc3)c(-c3ccc4c(c3)CC/C4=N\O)[nH]2)cc1 | 98.1% | 113% | 102% | 110% | 127% | 129% | 129% | 107% | 95.3% | 95.2% | 62.9% | 97% | 101% | 95% | 104% | 118% | 112% | 97.2% | 95.5% | 104% | 86.9% | 81.4% | 108% | 105% | 121% | 106% | 119% | 121% | 115% | 106% | 85.5% | 85.4% | 53.8%
11 | C=CC(=O)Nc1cccc(Nc2nc(NC3CCC(N(C)C)CC3)nc3c2ncn3C(C)C)c1 (centres undefined) | 96.7% | 120% | 114% | 94.7% | 111% | 109% | 125% | 73.8% | 7.49% | 5.11% | 4.77% | 127% | 111% | 115% | 100% | 103% | 104% | 99.6% | 98.2% | 11.9% | 5.39% | 3.68% | 103% | 98.2% | 103% | 103% | 106% | 105% | 105% | 72.9% | 7.93% | 5.45% | 4.26%
12 | O=C(O)/C=C/c1ccc(O)c(O)c1 | 104% | 125% | 104% | 107% | 127% | 124% | 118% | 118% | 104% | 94.7% | 67% | 124% | 100% | 109% | 107% | 97.9% | 98.9% | 92.5% | 111% | 101% | 92.2% | 25.2% | 105% | 118% | 106% | 102% | 106% | 115% | 107% | 112% | 101% | 105% | 47.9%
13 | COC[C@H](c1ccc(C(F)(F)F)cc1)N1CCN(C2(C)CCN(C(=O)c3c(C)ncnc3C)CC2)C[C@H]1C.O=C(O)/C=C\C(=O)O | 85.7% | 106% | 106% | 107% | 114% | 99.8% | 111% | 70.7% | 63.5% | 62.2% | 49.9% | 87.9% | 95.7% | 101% | 97.5% | 93.8% | 103% | 91% | 83.8% | 65.1% | 56.3% | 62.8% | 83.9% | 108% | 92% | 104% | 99.8% | 105% | 101% | 91.8% | 75% | 50.9% | 51.7%
14 | NC(=O)c1cccc2cn(-c3ccc([C@@H]4CCCNC4)cc3)nc12 | 90.2% | 97.4% | 114% | 103% | 118% | 122% | 114% | 111% | 98.2% | 117% | 69% | 83.5% | 82.2% | 100% | 102% | 93.8% | 97.1% | 91.5% | 106% | 103% | 105% | 82.2% | 83.8% | 111% | 108% | 111% | 108% | 122% | 114% | 102% | 110% | 118% | 98.8%
15 | C/C(O)=C(\C#N)C(=O)Nc1cc(Br)ccc1Br | 111% | 119% | 98.3% | 115% | 88.3% | 104% | 98.3% | 96.6% | 98.8% | 90.7% | 78.3% | 96.4% | 93.7% | 94.6% | 99.2% | 94% | 92.5% | 96.2% | 90% | 83% | 88% | 82.3% | 95.3% | 96% | 102% | 102% | 94.1% | 102% | 90% | 83.4% | 82.5% | 93.3% | 78%
